{"source": "paper PMC11345841", "about": "“Exploring 2-Sulfonylpyrimidine Warheads as Acrylamide Surrogates for Targeted Covalent Inhibition: A BTK Story” (Journal of Medicinal Chemistry, 2024)", "experiment_in_all_cases": "KINOMEscan ScanTK", "type_in_all_cases": "binding", "key": {"[1]": {"biological_target": "T1, ABL1(F317I)-phosphorylated (Homo sapiens, UniProt P00519, F317I)", "T1 construct": "purchased Eurofins DiscoverX KINOMEscan (scanTK)"}, "[2]": {"biological_target": "T2, ABL1(T315I)-nonphosphorylated (Homo sapiens, UniProt P00519, T315I)", "T2 construct": "purchased Eurofins DiscoverX KINOMEscan (scanTK)"}, "EGFR": {"biological_target": "T3, EGFR (Homo sapiens, UniProt P00533)", "T3 construct": "purchased Eurofins DiscoverX KINOMEscan (scanTK)", "T3 sequence (P00533 25-1210)": "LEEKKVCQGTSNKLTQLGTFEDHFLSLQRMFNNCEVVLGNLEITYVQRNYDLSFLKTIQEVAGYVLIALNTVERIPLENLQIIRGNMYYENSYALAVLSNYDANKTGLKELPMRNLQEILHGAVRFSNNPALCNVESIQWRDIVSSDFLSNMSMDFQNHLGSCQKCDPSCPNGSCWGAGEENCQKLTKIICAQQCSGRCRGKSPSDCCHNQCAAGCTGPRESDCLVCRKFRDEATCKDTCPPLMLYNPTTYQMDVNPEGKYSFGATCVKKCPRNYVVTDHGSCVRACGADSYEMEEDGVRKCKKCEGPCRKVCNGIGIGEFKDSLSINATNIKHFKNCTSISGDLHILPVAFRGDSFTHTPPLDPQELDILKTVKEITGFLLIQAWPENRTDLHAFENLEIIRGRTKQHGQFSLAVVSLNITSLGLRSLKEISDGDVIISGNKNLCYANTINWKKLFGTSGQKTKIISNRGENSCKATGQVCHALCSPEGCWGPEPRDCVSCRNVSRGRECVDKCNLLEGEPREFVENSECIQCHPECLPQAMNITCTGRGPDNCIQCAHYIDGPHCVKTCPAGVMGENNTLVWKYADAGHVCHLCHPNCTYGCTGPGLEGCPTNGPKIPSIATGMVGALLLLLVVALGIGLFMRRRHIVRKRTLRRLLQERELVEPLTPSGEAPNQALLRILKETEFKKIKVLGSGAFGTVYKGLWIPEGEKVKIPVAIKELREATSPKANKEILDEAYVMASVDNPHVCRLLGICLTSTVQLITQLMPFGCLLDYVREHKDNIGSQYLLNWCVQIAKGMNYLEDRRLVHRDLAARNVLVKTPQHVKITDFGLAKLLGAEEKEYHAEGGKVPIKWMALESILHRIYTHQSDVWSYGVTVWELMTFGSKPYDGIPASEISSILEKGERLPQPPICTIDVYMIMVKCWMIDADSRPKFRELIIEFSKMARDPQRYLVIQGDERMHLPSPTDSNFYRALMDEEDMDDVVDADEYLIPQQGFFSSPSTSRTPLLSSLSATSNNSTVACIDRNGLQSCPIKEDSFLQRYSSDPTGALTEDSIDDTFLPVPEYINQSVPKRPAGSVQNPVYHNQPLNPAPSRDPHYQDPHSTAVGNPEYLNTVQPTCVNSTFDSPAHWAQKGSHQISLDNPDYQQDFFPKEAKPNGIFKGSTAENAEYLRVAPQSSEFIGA"}, "EGFR(E746-A750del)": {"biological_target": "T4, EGFR(E746-A750del) (Homo sapiens, UniProt P00533, DEL746-750)", "T4 construct": "purchased Eurofins DiscoverX KINOMEscan (scanTK)", "T4 sequence (P00533 with tags, fused parts or gaps DEL746-750 limits assumed)": "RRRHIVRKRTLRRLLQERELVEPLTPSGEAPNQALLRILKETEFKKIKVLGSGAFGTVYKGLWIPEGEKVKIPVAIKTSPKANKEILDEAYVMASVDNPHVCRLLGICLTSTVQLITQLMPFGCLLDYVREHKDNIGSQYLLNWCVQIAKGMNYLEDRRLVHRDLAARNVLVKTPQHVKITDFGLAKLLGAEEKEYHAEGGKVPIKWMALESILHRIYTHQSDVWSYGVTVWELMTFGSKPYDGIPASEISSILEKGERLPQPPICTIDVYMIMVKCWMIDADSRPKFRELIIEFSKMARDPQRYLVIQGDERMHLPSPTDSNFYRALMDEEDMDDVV"}, "[3]": {"biological_target": "T5, EGFR(L747-S752del, P753S) (Homo sapiens, UniProt P00533, DEL747-752/P753S)", "T5 construct": "purchased Eurofins DiscoverX KINOMEscan (scanTK)", "T5 sequence (P00533 with tags, fused parts or gaps DEL747-752/P753S limits assumed)": "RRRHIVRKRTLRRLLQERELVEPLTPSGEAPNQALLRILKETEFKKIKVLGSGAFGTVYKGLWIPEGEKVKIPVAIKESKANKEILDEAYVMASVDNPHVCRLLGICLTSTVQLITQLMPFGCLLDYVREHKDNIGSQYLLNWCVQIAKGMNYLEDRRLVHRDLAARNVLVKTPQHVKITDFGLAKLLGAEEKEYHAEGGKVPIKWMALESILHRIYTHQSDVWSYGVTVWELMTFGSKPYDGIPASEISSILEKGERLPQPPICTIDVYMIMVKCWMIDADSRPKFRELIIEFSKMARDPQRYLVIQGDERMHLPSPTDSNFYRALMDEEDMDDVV"}, "EGFR(L858R,T790M)": {"biological_target": "T6, EGFR(L858R,T790M) (Homo sapiens, UniProt P00533, L858R/T790M)", "T6 construct": "purchased Eurofins DiscoverX KINOMEscan (scanTK)", "T6 sequence (P00533 25-1210 T790M/L858R)": "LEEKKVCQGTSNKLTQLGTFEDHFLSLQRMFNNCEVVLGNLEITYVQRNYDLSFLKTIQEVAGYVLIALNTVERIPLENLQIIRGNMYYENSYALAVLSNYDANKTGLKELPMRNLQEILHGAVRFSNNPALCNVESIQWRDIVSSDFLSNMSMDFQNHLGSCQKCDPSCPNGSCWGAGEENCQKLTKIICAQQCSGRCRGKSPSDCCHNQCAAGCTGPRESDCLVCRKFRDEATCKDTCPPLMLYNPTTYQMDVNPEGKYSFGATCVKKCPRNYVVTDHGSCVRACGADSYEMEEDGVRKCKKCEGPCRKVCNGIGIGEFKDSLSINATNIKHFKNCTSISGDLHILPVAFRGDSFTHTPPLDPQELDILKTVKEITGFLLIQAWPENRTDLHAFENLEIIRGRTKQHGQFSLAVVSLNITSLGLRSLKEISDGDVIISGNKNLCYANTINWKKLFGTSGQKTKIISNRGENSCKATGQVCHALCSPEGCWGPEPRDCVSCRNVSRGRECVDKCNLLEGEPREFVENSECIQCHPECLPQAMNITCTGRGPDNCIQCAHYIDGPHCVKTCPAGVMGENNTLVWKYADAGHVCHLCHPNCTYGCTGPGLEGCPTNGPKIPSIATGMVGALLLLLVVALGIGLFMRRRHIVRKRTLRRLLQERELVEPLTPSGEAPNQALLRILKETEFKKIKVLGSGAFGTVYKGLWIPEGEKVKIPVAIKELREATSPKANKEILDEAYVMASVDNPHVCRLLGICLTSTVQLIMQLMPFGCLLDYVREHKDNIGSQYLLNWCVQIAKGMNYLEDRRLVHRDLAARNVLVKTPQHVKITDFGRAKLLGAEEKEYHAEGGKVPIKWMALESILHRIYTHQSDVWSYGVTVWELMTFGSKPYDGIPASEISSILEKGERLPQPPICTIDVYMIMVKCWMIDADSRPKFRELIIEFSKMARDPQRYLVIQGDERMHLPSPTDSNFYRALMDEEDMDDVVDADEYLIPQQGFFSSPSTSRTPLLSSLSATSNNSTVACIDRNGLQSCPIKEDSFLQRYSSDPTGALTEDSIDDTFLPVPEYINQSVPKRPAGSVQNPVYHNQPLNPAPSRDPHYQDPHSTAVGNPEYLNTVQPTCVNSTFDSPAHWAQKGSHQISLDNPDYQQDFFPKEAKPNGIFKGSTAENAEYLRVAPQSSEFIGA"}, "FAK": {"biological_target": "T7, FAK (Homo sapiens, UniProt Q05397)", "T7 construct": "purchased Eurofins DiscoverX KINOMEscan (scanTK)"}, "INSRR": {"biological_target": "T8, INSRR (Homo sapiens, UniProt P14616)", "T8 construct": "purchased Eurofins DiscoverX KINOMEscan (scanTK)", "T8 sequence (P14616 27-1297)": "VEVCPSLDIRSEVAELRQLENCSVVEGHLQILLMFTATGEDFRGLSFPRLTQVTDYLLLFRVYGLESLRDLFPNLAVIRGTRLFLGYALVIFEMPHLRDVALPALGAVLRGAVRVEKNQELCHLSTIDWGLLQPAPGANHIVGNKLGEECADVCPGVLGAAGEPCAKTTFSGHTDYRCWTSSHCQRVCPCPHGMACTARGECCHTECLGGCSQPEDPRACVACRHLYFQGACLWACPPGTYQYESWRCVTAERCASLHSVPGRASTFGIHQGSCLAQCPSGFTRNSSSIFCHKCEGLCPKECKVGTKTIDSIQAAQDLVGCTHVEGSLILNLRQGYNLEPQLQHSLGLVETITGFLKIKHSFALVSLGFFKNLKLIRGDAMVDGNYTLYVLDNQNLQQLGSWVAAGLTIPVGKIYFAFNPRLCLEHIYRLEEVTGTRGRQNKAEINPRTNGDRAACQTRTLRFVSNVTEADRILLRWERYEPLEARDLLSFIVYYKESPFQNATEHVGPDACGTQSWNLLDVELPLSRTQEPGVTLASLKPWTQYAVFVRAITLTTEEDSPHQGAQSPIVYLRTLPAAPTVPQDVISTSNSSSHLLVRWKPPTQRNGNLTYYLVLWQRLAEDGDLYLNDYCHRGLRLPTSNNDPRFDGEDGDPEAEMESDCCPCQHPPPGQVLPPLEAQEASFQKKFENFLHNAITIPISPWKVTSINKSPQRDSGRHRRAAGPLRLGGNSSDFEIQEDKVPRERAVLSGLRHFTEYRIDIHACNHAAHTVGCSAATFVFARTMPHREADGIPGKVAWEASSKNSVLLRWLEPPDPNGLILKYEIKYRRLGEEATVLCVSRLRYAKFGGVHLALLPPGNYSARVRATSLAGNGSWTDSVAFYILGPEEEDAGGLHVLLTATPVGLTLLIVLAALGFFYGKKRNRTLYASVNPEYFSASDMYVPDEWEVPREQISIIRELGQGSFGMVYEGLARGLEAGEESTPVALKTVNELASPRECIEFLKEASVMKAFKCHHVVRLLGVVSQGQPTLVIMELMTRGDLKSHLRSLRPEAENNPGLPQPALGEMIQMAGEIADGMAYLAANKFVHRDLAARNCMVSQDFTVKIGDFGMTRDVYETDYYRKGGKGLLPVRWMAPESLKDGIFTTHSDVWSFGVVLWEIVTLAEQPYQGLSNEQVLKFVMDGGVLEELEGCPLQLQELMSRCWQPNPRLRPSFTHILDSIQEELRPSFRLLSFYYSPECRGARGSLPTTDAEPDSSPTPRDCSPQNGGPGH"}, "ITK": {"biological_target": "T9, ITK (Homo sapiens, UniProt Q08881)", "T9 construct": "purchased Eurofins DiscoverX KINOMEscan (scanTK)", "T9 sequence (Q08881 1-620)": "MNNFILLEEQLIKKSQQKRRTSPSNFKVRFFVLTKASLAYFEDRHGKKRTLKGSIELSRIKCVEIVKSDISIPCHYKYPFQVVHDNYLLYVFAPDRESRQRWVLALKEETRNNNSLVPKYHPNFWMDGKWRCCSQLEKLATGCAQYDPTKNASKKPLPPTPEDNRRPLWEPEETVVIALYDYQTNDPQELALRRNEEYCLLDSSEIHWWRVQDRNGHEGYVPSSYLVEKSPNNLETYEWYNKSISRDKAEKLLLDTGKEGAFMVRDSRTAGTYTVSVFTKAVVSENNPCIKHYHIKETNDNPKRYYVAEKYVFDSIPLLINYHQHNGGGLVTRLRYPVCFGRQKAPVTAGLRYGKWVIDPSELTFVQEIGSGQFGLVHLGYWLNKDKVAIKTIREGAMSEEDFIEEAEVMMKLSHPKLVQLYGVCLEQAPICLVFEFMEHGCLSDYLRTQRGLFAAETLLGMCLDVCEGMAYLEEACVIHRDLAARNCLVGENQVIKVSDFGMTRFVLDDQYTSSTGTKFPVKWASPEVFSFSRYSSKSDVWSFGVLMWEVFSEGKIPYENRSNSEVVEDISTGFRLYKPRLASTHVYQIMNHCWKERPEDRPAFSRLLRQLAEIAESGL"}, "[4]": {"biological_target": "T10, JAK1(JH1domain-catalytic) (Homo sapiens, UniProt P23458)", "T10 construct": "JAK1(JH1domain-catalytic); purchased Eurofins DiscoverX KINOMEscan (scanTK)", "T10 sequence (P23458 875-1154 limits assumed)": "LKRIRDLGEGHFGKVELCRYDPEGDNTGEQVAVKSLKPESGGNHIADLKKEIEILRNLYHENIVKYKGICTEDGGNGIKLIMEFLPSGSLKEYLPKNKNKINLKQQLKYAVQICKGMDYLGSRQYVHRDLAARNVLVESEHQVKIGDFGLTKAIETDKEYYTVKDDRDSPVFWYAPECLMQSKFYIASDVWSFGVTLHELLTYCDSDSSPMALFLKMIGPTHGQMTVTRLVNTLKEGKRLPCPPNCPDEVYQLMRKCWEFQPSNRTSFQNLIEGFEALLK"}, "[5]": {"biological_target": "T11, JAK1(JH2domain-pseudokinase) (Homo sapiens, UniProt P23458)", "T11 construct": "JAK1(JH2domain-pseudokinase); purchased Eurofins DiscoverX KINOMEscan (scanTK)"}, "[6]": {"biological_target": "T12, JAK2(JH1domain-catalytic) (Homo sapiens, UniProt O60674)", "T12 construct": "JAK2(JH1domain-catalytic); purchased Eurofins DiscoverX KINOMEscan (scanTK)", "T12 sequence (O60674 849-1132 limits assumed)": "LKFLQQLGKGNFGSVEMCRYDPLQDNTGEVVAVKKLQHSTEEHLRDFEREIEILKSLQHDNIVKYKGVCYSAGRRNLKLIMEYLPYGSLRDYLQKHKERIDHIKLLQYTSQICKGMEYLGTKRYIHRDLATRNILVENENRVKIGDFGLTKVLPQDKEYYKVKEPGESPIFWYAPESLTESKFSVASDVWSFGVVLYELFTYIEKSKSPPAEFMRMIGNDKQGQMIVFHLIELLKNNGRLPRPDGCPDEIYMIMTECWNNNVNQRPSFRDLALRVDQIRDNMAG"}, "KIT(D816V)": {"biological_target": "T13, KIT(D816V) (Homo sapiens, UniProt P10721, D816V)", "T13 construct": "purchased Eurofins DiscoverX KINOMEscan (scanTK)"}, "KIT(L576P)": {"biological_target": "T14, KIT(L576P) (Homo sapiens, UniProt P10721, L576P)", "T14 construct": "purchased Eurofins DiscoverX KINOMEscan (scanTK)"}, "KIT-autoinhibited": {"biological_target": "T15, KIT-autoinhibited (Homo sapiens, UniProt P10721)", "T15 construct": "purchased Eurofins DiscoverX KINOMEscan (scanTK)"}, "PDGFRB": {"biological_target": "T16, PDGFRB (Homo sapiens, UniProt P09619)", "T16 construct": "purchased Eurofins DiscoverX KINOMEscan (scanTK)"}, "SRMS": {"biological_target": "T17, SRMS (Homo sapiens, UniProt Q9H3Y6)", "T17 construct": "purchased Eurofins DiscoverX KINOMEscan (scanTK)", "details": "SRMS"}, "SYK": {"biological_target": "T18, SYK (Homo sapiens, UniProt P43405)", "T18 construct": "purchased Eurofins DiscoverX KINOMEscan (scanTK)"}, "YES": {"biological_target": "T19, YES (Homo sapiens, UniProt P07947)", "T19 construct": "purchased Eurofins DiscoverX KINOMEscan (scanTK)"}}, "note": "Where two headings read alike, the source gives them in different places."}
{"smiles": "CNC(=O)c1cnc(S(C)(=O)=O)nc1N1CCCC(n2nc(-c3ccc(Oc4ccccc4)cc3)c3c(N)ncnc32)C1", "note": "(stereo not drawn) [Compound 8d, 4-(3-(4-Amino-3-(4-phenoxyphenyl)-1H-pyrazolo[3,4-d]pyrimidin-1-yl)piperidin-1-yl)-N-methyl-2-(methylsulfonyl)pyrimidine-5-carboxamide]", "values": [{"measurement": "difference in %Control from reference compound Ib at 1 µM", "setting": "[1]; @1000nM", "value": 17, "unit": "%"}, {"measurement": "remaining binding at 1 µM", "setting": "[1]; @1000nM, read-out: %Control", "value": 90, "unit": "%"}, {"measurement": "remaining binding at 1 µM", "setting": "[1]; read-out: %Control @1000nM", "value": 90, "unit": "%"}, {"measurement": "difference in % of control versus compound Ib at 1 µM", "setting": "[2]; @1000nM", "value": -16, "unit": "%"}, {"measurement": "remaining binding at 1 µM", "setting": "[2]; @1000nM, read-out: %Control", "value": 77, "unit": "%"}, {"measurement": "remaining binding at 1 µM", "setting": "[2]; read-out: %Control @1000nM", "value": 77, "unit": "%"}, {"measurement": "difference in %Control versus reference compound Ib at 1 µM", "setting": "EGFR; @1000nM, EGFR", "value": 16.8, "unit": "%"}, {"measurement": "remaining binding at 1 µM", "setting": "EGFR; @1000nM, EGFR, read-out: %Control", "value": 17, "unit": "%"}, {"measurement": "remaining binding at 1 µM", "setting": "EGFR; EGFR, read-out: %Control @1000nM", "value": 17, "unit": "%"}, {"measurement": "inhibition at 1 µM", "setting": "EGFR; ScanTK, 1 μM, WT EGFR", "value": 83, "unit": "%"}, {"measurement": "difference in %Control from reference compound Ib at 1 µM", "setting": "EGFR(E746-A750del); @1000nM", "value": 74, "unit": "%"}, {"measurement": "remaining binding at 1 µM", "setting": "EGFR(E746-A750del); @1000nM, read-out: %Control", "value": 85, "unit": "%"}, {"measurement": "remaining binding at 1 µM", "setting": "EGFR(E746-A750del); read-out: %Control @1000nM", "value": 85, "unit": "%"}, {"measurement": "difference in %Control versus compound Ib at 1 µM", "setting": "[3]; @1000nM", "value": 36.5, "unit": "%"}, {"measurement": "remaining binding at 1 µM", "setting": "[3]; @1000nM, read-out: %Control", "value": 42, "unit": "%"}, {"measurement": "remaining binding at 1 µM", "setting": "[3]; read-out: %Control @1000nM", "value": 42, "unit": "%"}, {"measurement": "difference in % of control versus compound Ib at 1 µM", "setting": "EGFR(L858R,T790M); @1000nM", "value": 49, "unit": "%"}, {"measurement": "remaining binding at 1 µM", "setting": "EGFR(L858R,T790M); @1000nM, read-out: %Control", "value": 59, "unit": "%"}, {"measurement": "remaining binding at 1 µM", "setting": "EGFR(L858R,T790M); read-out: %Control @1000nM", "value": 59, "unit": "%"}, {"measurement": "difference in %Control versus compound Ib at 1 µM", "setting": "FAK; @1000nM", "value": 0, "unit": "%"}, {"measurement": "remaining binding at 1 µM", "setting": "FAK; @1000nM, read-out: %Control", "value": 100, "unit": "%"}, {"measurement": "remaining binding at 1 µM", "setting": "FAK; read-out: %Control @1000nM", "value": 100, "unit": "%"}, {"measurement": "difference in %Control versus compound Ib at 1 µM", "setting": "INSRR; @1000nM", "value": -8, "unit": "%"}, {"measurement": "remaining binding at 1 µM", "setting": "INSRR; @1000nM, read-out: %Control", "value": 88, "unit": "%"}, {"measurement": "remaining binding at 1 µM", "setting": "INSRR; read-out: %Control @1000nM", "value": 88, "unit": "%"}, {"measurement": "difference in %Control versus compound Ib at 1 µM", "setting": "ITK; @1000nM, ITK", "value": 66, "unit": "%"}, {"measurement": "remaining binding at 1 µM", "setting": "ITK; @1000nM, ITK, read-out: %Control", "value": 81, "unit": "%"}, {"measurement": "remaining binding at 1 µM", "setting": "ITK; ITK, read-out: %Control @1000nM", "value": 81, "unit": "%"}, {"measurement": "inhibition at 1 µM", "setting": "ITK; ScanTK, 1 μM", "value": 19, "unit": "%"}, {"measurement": "difference in %Control versus compound Ib at 1 µM", "setting": "[4]; @1000nM", "value": 6, "unit": "%"}, {"measurement": "remaining binding at 1 µM", "setting": "[4]; @1000nM, read-out: %Control", "value": 100, "unit": "%"}, {"measurement": "remaining binding at 1 µM", "setting": "[4]; read-out: %Control @1000nM", "value": 100, "unit": "%"}, {"measurement": "%Control difference versus compound Ib at 1 µM", "setting": "[5]; @1000nM", "value": 5, "unit": "%"}, {"measurement": "remaining binding at 1 µM", "setting": "[5]; @1000nM, read-out: %Control", "value": 100, "unit": "%"}, {"measurement": "remaining binding at 1 µM", "setting": "[5]; read-out: %Control @1000nM", "value": 100, "unit": "%"}, {"measurement": "difference in %Control vs compound Ib at 1 µM", "setting": "[6]; @1000nM", "value": -14, "unit": "%"}, {"measurement": "remaining binding at 1 µM", "setting": "[6]; @1000nM, read-out: %Control", "value": 86, "unit": "%"}, {"measurement": "remaining binding at 1 µM", "setting": "[6]; read-out: %Control @1000nM", "value": 86, "unit": "%"}, {"measurement": "remaining binding at 1 µM", "setting": "KIT(D816V); @1000nM, read-out: %Control", "value": 84, "unit": "%"}, {"measurement": "remaining binding at 1 µM", "setting": "KIT(D816V); read-out: %Control @1000nM", "value": 84, "unit": "%"}, {"measurement": "difference in %Control versus Ib at 1 µM", "setting": "KIT(L576P); @1000nM, read-out: % difference (compound - Ib %Control)", "value": 13, "unit": "%"}, {"measurement": "remaining binding at 1 µM", "setting": "KIT(L576P); @1000nM, read-out: %Control", "value": 45, "unit": "%"}, {"measurement": "remaining binding at 1 µM", "setting": "KIT(L576P); read-out: %Control @1000nM", "value": 45, "unit": "%"}, {"measurement": "remaining binding at 1 µM", "setting": "KIT-autoinhibited; @1000nM, read-out: %Control", "value": 100, "unit": "%"}, {"measurement": "remaining binding at 1 µM", "setting": "KIT-autoinhibited; read-out: %Control @1000nM", "value": 100, "unit": "%"}, {"measurement": "remaining binding at 1 µM", "setting": "PDGFRB; @1000nM, read-out: %Control", "value": 77, "unit": "%"}, {"measurement": "remaining binding at 1 µM", "setting": "PDGFRB; read-out: %Control @1000nM", "value": 77, "unit": "%"}, {"measurement": "remaining binding at 1 µM", "setting": "SRMS; @1000nM, read-out: %Control", "value": 6.5, "unit": "%"}, {"measurement": "remaining binding at 1 µM", "setting": "SRMS; read-out: %Control @1000nM", "value": 6.5, "unit": "%"}, {"measurement": "difference in %Control versus compound Ib at 1 µM", "setting": "SYK; @1000nM", "value": -2, "unit": "%"}, {"measurement": "remaining binding at 1 µM", "setting": "SYK; @1000nM, read-out: %Control", "value": 89, "unit": "%"}, {"measurement": "remaining binding at 1 µM", "setting": "SYK; read-out: %Control @1000nM", "value": 89, "unit": "%"}, {"measurement": "remaining binding at 1 µM", "setting": "YES; @1000nM, read-out: %Control", "value": 11, "unit": "%"}, {"measurement": "remaining binding at 1 µM", "setting": "YES; read-out: %Control @1000nM", "value": 11, "unit": "%"}]}
